Data from US9701707B2, “Methods of synthesizing substituted purine compounds” (Epizyme, Inc., priority 2013, dated 2017).

Assays:
[1] = Solution stability in pH buffers; type: physicochemical
Description: 0.1 mg/ml solutions of Form B were prepared in five buffers, including 0.01N HCl (pH 2), 50 mM sodium citrate (pH 4), 50 mM sodium citrate (pH 6), 50 mM sodium phosphate (pH 8), and 50 mM sodium carbonate (pH 10). Methanol was added as a co-solvent to dissolve Form B in buffers (i.e., 10% (v/v) in pH 2, 4, and 6 buffers, 20% (v/v) in pH 8 buffer, and 30% (v/v) in pH 10 buffer). Each buffer solution containing Form B was stored at 3 different temperatures: 25° C., 37° C., and 50° C. Aliquots were taken for HPLC analysis after 1 day and 7 days. pH values were also measured before and after the stability experiments.
Preparation of pH Buffers • pH 2: 0.01N HCl solution. Dilute 1 ml of 1 N HCl with H2O up to a total volume of 100 ml. Measure the pH and precisely adjust to pH=2.00 using a few microliters of 1N HCl or 1N NaOH. • pH 4: 50 mM Na citrate buffer. Prepare a 50 mM citric acid solution by diluting 10 ml of 1N citric acid with H2O up to a total volume of 200 ml. Slowly add solid NaOH under stirring to increase the pH to 3.8-4.0 and use a few microliters of 1N NaOH for final adjustment to pH 4.00. • pH 6: 50 mM Na citrate buffer. Use the same procedure as the pH 4 buffer and adjust to pH=6.00 • pH 8: 50 mM Na phosphate buffer. Prepare a 50 mM NaH2PO4 solution by dissolving 6.00 g NaH2PO4 in 1 L of H2O and a 50 mM Na2HPO4 solution by dissolving 7.10 g in 1 L of H2O. Mix 10 ml of the NaH2PO4 solution with 140 ml of the Na2HPO4 solution in a beaker. Adjust to pH 8.00 by addition of small amounts of 50 mM NaH2PO4 or Na2HPO4 solution. • pH 10: 50 mM Na carbonate buffer. Prepare a 50 mM carbonate solution by dissolving 840 mg of sodium bicarbonate (NaHCO3) in about 180 ml of H2O. Slowly adjust the pH to 10.0±0.1 by addition of 1N NaOH. Add water to reach the total volume of 200 ml and adjust to pH 10.00 with 1N NaOH.

[2] = Dynamic vapor sorption (DVS) hygroscopicity; type: physicochemical; details: between 0% and 95% RH, 25° C.
Description: Form A may be observed EP-1. […] (peak temperature) which is accompanied by 5.9 wt % weight loss up to ˜150° C. in the TGA curve (FIG. 3). […] Form A is hygroscopic as indicated by water adsorption of 5.8 wt % at 80% RH measured by dynamic vapor sorption (DVS) (FIG. 4). A solid is considered moderately hygroscopic when water uptake at 25° C./80% RH is between 2-15 wt % based on criteria of European Pharmacopeia.
Form B of EP-1 trihydrate (x is 3) is a trihydrate as confirmed by single crystal analysis. The experimental XRPD pattern of Form B matches well with the simulated one from single crystal data (FIG. 6). This was also confirmed by DSC and TGA data (FIG. 7 and FIG. 8, respectively). DSC data indicates Form B dehydrates at ˜132° C. […] Form B is slightly hygroscopic as evidenced by a weight change of ˜0.3% between 0% and 95% RH (FIG. 9), (data collection was programmed from 95% RH-0% RH-95% RH at a step size of 10% RH at 25° C.).

[3] = pH 2, 25° C., 24 h, measured pH 2.1
[4] = pH 2, 25° C., 7 days, measured pH 2.1
[5] = pH 2, 37° C., 24 h, measured pH 2.1
[6] = pH 2, 37° C., 7 days, measured pH 2.1
[7] = pH 2, 50° C., 24 h, measured pH 2.1
[8] = pH 2, 50° C., 7 days, measured pH 2.1
[9] = pH 4, 25° C., 24 h, measured pH 4.2
[10] = pH 4, 25° C., 7 days, measured pH 4.2
[11] = pH 4, 37° C., 24 h, measured pH 4.1
[12] = pH 4, 37° C., 7 days, measured pH 4.1
[13] = pH 4, 50° C., 24 h, measured pH 4.1
[14] = pH 4, 50° C., 7 days, measured pH 4.2
[15] = pH 6, 25° C., 24 h, measured pH 6.2
[16] = pH 6, 25° C., 7 days, measured pH 6.2
[17] = pH 6, 37° C., 24 h, measured pH 6.2
[18] = pH 6, 37° C., 7 days, measured pH 6.3
[19] = pH 6, 50° C., 24 h, measured pH 6.2
[20] = pH 6, 50° C., 7 days, measured pH 6.2
[21] = pH 8, 25° C., 24 h, measured pH 8.2
[22] = pH 8, 25° C., 7 days, measured pH 8.2
[23] = pH 8, 37° C., 24 h, measured pH 8.2
[24] = pH 8, 37° C., 7 days, measured pH 8.3
[25] = pH 8, 50° C., 24 h, measured pH 8.3
[26] = pH 8, 50° C., 7 days, measured pH 8.3
[27] = pH 10, 25° C., 24 h, measured pH 10.9
[28] = pH 10, 25° C., 7 days, measured pH 10.9
[29] = pH 10, 37° C., 24 h, measured pH 10.9
[30] = pH 10, 37° C., 7 days, measured pH 10.9
[31] = pH 10, 50° C., 24 h, measured pH 11.0
[32] = pH 10, 50° C., 7 days, measured pH 10.9

- % area (100% − TRS%) [1, 3]: 98.7%
- % claim (Cs/Ci × 100%) [1, 3]: 97.1%
- % area (100% − TRS%) [1, 4]: 98.5%
- % claim (Cs/Ci × 100%) [1, 4]: 99.1%
- % area (100% − TRS%) [1, 5]: 98.7%
- % claim (Cs/Ci × 100%) [1, 5]: 96.8%
- % area (100% − TRS%) [1, 6]: 98.4%
- % claim (Cs/Ci × 100%) [1, 6]: 97.5%
- % area (100% − TRS%) [1, 7]: 98.3%
- % claim (Cs/Ci × 100%) [1, 7]: 97.0%
- % area (100% − TRS%) [1, 8]: 98.4%
- % claim (Cs/Ci × 100%) [1, 8]: 97.0%
- degradation in solution ([1]; pH 2 to 10 buffers, 25° C., 37° C., 50° C., up to 7 days): less than 5%
- % area (100% − TRS%) [1, 9]: 99.4%
- % claim (Cs/Ci × 100%) [1, 9]: 97.4%
- % area (100% − TRS%) [1, 10]: 99.6%
- % claim (Cs/Ci × 100%) [1, 10]: 100.2%
- % area (100% − TRS%) [1, 11]: 99.4%
- % claim (Cs/Ci × 100%) [1, 11]: 97.6%
- % area (100% − TRS%) [1, 12]: 99.5%
- % claim (Cs/Ci × 100%) [1, 12]: 99.0%
- % area (100% − TRS%) [1, 13]: 99.4%
- % claim (Cs/Ci × 100%) [1, 13]: 97.6%
- % area (100% − TRS%) [1, 14]: 99.5%
- % claim (Cs/Ci × 100%) [1, 14]: 98.7%
- % area (100% − TRS%) [1, 15]: 99.2%
- % claim (Cs/Ci × 100%) [1, 15]: 98.0%
- % area (100% − TRS%) [1, 16]: 99.5%
- % claim (Cs/Ci × 100%) [1, 16]: 100.0%
- % area (100% − TRS%) [1, 17]: 99.3%
- % claim (Cs/Ci × 100%) [1, 17]: 97.9%
- % area (100% − TRS%) [1, 18]: 99.4%
- % claim (Cs/Ci × 100%) [1, 18]: 99.0%
- % area (100% − TRS%) [1, 19]: 99.3%
- % claim (Cs/Ci × 100%) [1, 19]: 98.1%
- % area (100% − TRS%) [1, 20]: 99.5%
- % claim (Cs/Ci × 100%) [1, 20]: 98.9%
- % area (100% − TRS%) [1, 21]: 99.2%
- % claim (Cs/Ci × 100%) [1, 21]: 98.0%
- % area (100% − TRS%) [1, 22]: 99.5%
- % claim (Cs/Ci × 100%) [1, 22]: 99.8%
- % area (100% − TRS%) [1, 23]: 99.5%
- % claim (Cs/Ci × 100%) [1, 23]: 98.4%
- % area (100% − TRS%) [1, 24]: 99.5%
- % claim (Cs/Ci × 100%) [1, 24]: 99.3%
- % area (100% − TRS%) [1, 25]: 99.5%
- % claim (Cs/Ci × 100%) [1, 25]: 98.0%
- % area (100% − TRS%) [1, 26]: 99.5%
- % claim (Cs/Ci × 100%) [1, 26]: 98.8%
- % area (100% − TRS%) [1, 27]: 99.4%
- % claim (Cs/Ci × 100%) [1, 27]: 98.0%
- % area (100% − TRS%) [1, 28]: 99.4%
- % claim (Cs/Ci × 100%) [1, 28]: 99.7%
- % area (100% − TRS%) [1, 29]: 99.4%
- % claim (Cs/Ci × 100%) [1, 29]: 98.2%
- % area (100% − TRS%) [1, 30]: 99.4%
- % claim (Cs/Ci × 100%) [1, 30]: 99.0%
- % area (100% − TRS%) [1, 31]: 99.5%
- % claim (Cs/Ci × 100%) [1, 31]: 97.9%
- % area (100% − TRS%) [1, 32]: 99.4%
- % claim (Cs/Ci × 100%) [1, 32]: 98.9%
- weight change [2]: ~0.3%
Structure (SMILES): CC(C)N(C[C@H]1O[C@@H](n2cnc3c(N)ncnc32)[C@H](O)[C@@H]1O)[C@H]1C[C@@H](CCc2nc3cc(C(C)(C)C)ccc3[nH]2)C1 [Form B, (2R,3R,4S,5R)-2-(6-amino-9H-purin-9-yl)-5-((((1r,3S)-3-(2-(5-(tert-butyl)-1H-benzo[d]imidazol-2-yl)ethyl)cyclobutyl)(isopropyl)amino)methyl)tetrahydrofuran-3,4-diol trihydrate]
